“And” between values parts separate entries of the source, which are not always exact repeats. Equal entries are not always repeated. Positions of bridges follow the written chain, without caps; N, C: chain ends. Non-standard residues stand in square brackets, D forms with d. Residues, ends and D or L forms follow the SMILES beside them. ξ: configuration not given here. Ala(indol-2-yl) = N[C@@H](Cc1cc2ccccc2[nH]1)C(=O)O; AllylGly = C=CC[C@H](N)C(=O)O; ξP = O=C(O)C1CCCN1
Target: T1, neuronal-type nicotinic receptors (Bos taurus, UniProt Q07263+Q8SPU6)
T1 construct: monolayer cultures of bovine adrenal chromaffin cells; endogenous in cells; host or cells: bovine adrenal chromaffin cells (primary monolayer cultures)
Type: cell-based, bovine

T1 sequence (Q07263 22-495): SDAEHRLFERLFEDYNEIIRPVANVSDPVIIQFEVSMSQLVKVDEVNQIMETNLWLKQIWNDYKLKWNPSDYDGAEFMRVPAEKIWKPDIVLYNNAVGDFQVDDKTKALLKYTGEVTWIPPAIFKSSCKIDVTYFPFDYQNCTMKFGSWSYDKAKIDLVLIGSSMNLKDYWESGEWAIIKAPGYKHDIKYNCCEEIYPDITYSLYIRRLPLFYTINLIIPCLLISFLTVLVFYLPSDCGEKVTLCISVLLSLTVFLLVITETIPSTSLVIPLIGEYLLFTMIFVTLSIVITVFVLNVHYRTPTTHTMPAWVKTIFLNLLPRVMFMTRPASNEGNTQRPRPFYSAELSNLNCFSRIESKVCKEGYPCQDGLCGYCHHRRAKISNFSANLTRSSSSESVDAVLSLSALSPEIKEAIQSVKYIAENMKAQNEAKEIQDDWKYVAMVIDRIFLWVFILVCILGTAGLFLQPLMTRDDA
T1 sequence (Q8SPU6 20-496): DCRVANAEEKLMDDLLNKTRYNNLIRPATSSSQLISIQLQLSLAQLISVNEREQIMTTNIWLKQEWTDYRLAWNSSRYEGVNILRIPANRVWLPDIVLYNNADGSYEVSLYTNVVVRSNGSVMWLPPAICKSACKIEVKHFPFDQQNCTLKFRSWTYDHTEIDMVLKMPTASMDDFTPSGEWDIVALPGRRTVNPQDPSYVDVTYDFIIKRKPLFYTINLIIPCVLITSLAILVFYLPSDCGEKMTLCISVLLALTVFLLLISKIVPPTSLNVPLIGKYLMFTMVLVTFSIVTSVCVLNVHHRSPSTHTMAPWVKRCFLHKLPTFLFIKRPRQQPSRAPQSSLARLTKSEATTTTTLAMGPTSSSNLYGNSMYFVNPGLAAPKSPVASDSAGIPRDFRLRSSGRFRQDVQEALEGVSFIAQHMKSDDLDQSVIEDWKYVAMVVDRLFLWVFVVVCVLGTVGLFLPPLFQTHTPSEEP

With C[C@@H]1NC(=O)[C@@H]2CSSC[C@H](NC(=O)CN)C(=O)N[C@@H](CC=CC[C@@H](C(N)=O)NC(=O)[C@H](CCCNC(=N)N)NC(=O)[C@H](Cc3cc4ccccc4[nH]3)NC1=O)C(=O)N[C@@H](CO)C(=O)N[C@@H](CC(=O)O)C(=O)N1CCCC1C(=O)N[C@@H](CCCNC(=N)N)C(=O)N2 (stereo partly drawn) [compound 119, [2,8]-Cystino-[3,12]-Dicarba Conotoxin ImI: NH2-Gly-Cys-c[Hag-Ser-Asp-Pro-Arg-Cys-Ala-Trp-Arg-Hag]-NH2] (H-GC[AllylGly]SD[ξP]RCA[Ala(indol-2-yl)]R[AllylGly]-NH2; disulfide 2-8; staple 3-12) the “Adrenaline Release, % control” value was 83.420% and 58.888%, the “Adrenaline Release, mean” value was 3.77% and 2.76% and the “Adrenaline Release, single determinations (1st-4th)” value was 3.31% and 3.67% and 4.14% and 3.98% and 2.32% and 2.95% and 2.76% and 3.02%. The “Noradrenaline Release, % control” value was 55.971% and 78.400%, the “Noradrenaline Release, % inhibition” value was 21.600% and the “Noradrenaline Release, mean” value was 4.15% and 5.52%. The “Noradrenaline Release, single determinations (1st-4th)” value was 3.22% and 4.58% and 3.99% and 4.81% and 4.89% and 5.75% and 5.73% and the “noradrenaline released, basal release (0.72%) subtracted” value was 3.43%.
